{
  "source": "patent EP4635969A1",
  "about": "“NOVEL GLUCOCORTICOID, METHOD FOR PREPARING SAME, AND USE THEREOF” (Tianjin Pharmaceutical Biotechnology Co., Ltd., priority 2022, dated 2024)",
  "key": {"[1]": {"biological_target": "T1, mineralocorticoid receptor (MR) (Homo sapiens, UniProt P08235)", "T1 sequence (P08235 726-984)": "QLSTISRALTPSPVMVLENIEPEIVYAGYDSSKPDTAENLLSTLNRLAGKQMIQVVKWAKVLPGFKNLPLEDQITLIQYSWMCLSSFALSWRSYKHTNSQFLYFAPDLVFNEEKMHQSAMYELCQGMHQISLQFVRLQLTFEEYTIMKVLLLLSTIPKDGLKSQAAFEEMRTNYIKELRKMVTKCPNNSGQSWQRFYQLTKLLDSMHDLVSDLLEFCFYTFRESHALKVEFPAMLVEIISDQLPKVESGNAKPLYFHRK", "assay": "Assay for agonist activity on mineralocorticoid receptor (luciferase reporter, HEK293 cells transfected with pBIND-MR plasmid)", "assay_type": "cell-based", "procedure,_shortened": "(§1)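 HEK293 cells transiently transfected with pBIND-MR or pBIND-PR, seeded in phenol red-free DMEM with 5% charcoal-stripped serum. Compounds tested as 12-point 4-fold dilutions from 50 µM in duplicate, 0.1% DMSO blank. Luciferase luminescence read, EC50 by nonlinear fit.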"}, "[2]": {"biological_target": "T2, progesterone receptor (PR) (Homo sapiens, UniProt P06401)", "T2 sequence (P06401 678-933)": "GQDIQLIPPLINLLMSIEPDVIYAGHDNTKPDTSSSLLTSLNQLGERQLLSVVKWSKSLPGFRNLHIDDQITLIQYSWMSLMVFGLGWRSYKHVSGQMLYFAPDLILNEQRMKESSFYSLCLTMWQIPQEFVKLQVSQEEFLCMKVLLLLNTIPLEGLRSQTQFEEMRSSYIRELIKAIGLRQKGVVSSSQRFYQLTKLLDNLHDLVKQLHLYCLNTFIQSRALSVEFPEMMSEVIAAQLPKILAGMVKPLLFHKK", "assay": "Assay for agonist activity on progesterone receptor (luciferase reporter, HEK293 cells transfected with pBIND-PR plasmid)", "assay_type": "cell-based", "procedure,_shortened": "as §1"}, "[3]": {"assay": "Determination of stability in plasma in vitro, human plasma (LC-MS/MS)", "assay_type": "in vitro ADME", "conditions": "human, human plasma, 1 µM, 37 °C; read-out: Half-life T1/2 (min) in plasma of different species, Human plasma", "method": "(§2) Pharmacological Example 3: Determination of Stability in Plasma in Vitro\n(§3) The stock solution was diluted with acetonitrile to obtain a working solution at a concentration of 100 µ M. The solution should be freshly prepared prior to use and maintained at room temperature during application.\n(§4) 990 µ L of human and mouse plasma (N = 2) were separately pipetted and pre-incubated at 37 °C for 5 min. Then, 10 µ L of the test compound working solution was added and vortexed thoroughly (the final concentration of the test compound was 1 µ M). Immediately, 50 µ L of the plasma sample was added to 150 µ L of ice-cold precipitation agent containing the internal standard and vortexed thoroughly as the 0-time sample. The remaining plasma sample was continuously incubated at 37 °C, and 50 µ L of the plasma sample was aspirated and added to 150 µ L of ice-cold precipitation agent containing the internal standard at preset sampling time points, followed by thorough vortexing. The collected samples were stored in a freezer at -60 to -90 °C until analysis.\n(§5) The concentration of the test compound was determined by LC-MS/MS, and its degradation was monitored. (semi-quantitative determination was conducted by comparing the peak area of the analyte to that of the internal standard)."}, "[4]": {"assay": "Determination of stability in plasma in vitro, mouse plasma (LC-MS/MS)", "assay_type": "in vitro ADME", "conditions": "37 °C, read-out: Half-life T1/2 (min) in plasma of different species, Mouse plasma", "method": "as §2, §3, §4, §5"}, "[5]": {"assay": "Stability in animal lung tissue homogenate, skin tissue homogenate and aqueous humor", "assay_type": "in vitro ADME"}, "asthma model mice": {"tested_on": "asthma model mice", "assay": "Anti-asthma pharmacodynamic experiment: airway hyperresponsiveness (Penh) after methacholine challenge", "assay_type": "in vivo, female BALB/c mice"}, "[6]": {"tested_on": "inflammatory cytokines IL-6 and IL-12", "assay": "Anti-asthma pharmacodynamic experiment: inflammatory cytokines in bronchoalveolar lavage fluid (ELISA)", "assay_type": "in vivo, female BALB/c mice", "description": "Pharmacological Example 4: Pharmacodynamic Experiment on Anti-Asthma\nThe suspensions were stored at room temperature protected from light until use.\nPositive control drug: Budesonide Suspension for Inhalation (specification: 2 mL: 1 mg; AstraZeneca Inc.; Lot No. : 327392) was diluted with injection-grade sodium chloride solution to 0.3 mg/ml as the positive control drug, and stored at room temperature protected from light until use.\nSixty female BALB/c mice underwent a one-week adaptive feeding period. Ten mice were randomly selected as the blank control group, while 50 mice were selected to establish asthma models.\nFrom days 21 to 23 after sensitization, the mice in the model group and drug administration group were exposed to a 30-minute aerosol challenge with 5% OVA, while the mice in the blank control group were exposed to normal saline aerosol for the same duration.\nAt the end of airway hyperresponsiveness testing in mice, the mice were euthanized by cervical dislocation and fixed on a dissection tray. The abdomens and thoracic cavities of the mice were opened, and the skin and excess tissues of the neck were excised to expose the trachea of the mice. A small incision was made transversely on the trachea with a small scissors. A pre-treated 1 mL syringe needle was inserted and fastened with surgical thread. A 1 mL syringe was used to slowly inject 0.5 mL of pre-chilled phosphate-buffered saline (PBS) into the lungs of the mice, followed by slow aspiration. Each mouse was lavaged once, and a total of approximately 0.4 ml of lavage fluid was collected. The bronchoalveolar lavage fluid was centrifuged at 3000 rpm for 5 min. After centrifugation, the supernatant was aliquoted, and the levels of inflammatory cytokines IL-6 and IL-12 in the bronchoalveolar lavage fluid were determined using ELISA kits.\nStatistical analysis was performed using SPSS software. Measurement data were expressed as mean ± standard deviation. One-way ANOVA was used for intergroup comparisons. For data with homogeneous variance, LSD test was used; for data with heterogeneous variance, Dunnett-t test was used. A value of P < 0.05 was considered statistically significant."}, "psoriasis model mice": {"tested_on": "psoriasis model mice", "assay": "Psoriasis experiment (imiquimod model): skin lesion (PASI) score", "assay_type": "in vivo", "conditions": "for PASI scores: compared with the model group; for PASI score: day 8 of modeling, 0.2 g cream per mouse daily for 7 days (compounds 1 mg/g, fluticasone propionate 0.5 mg/g)"}, "IL-17": {"tested_on": "IL-17", "assay": "Psoriasis experiment (imiquimod model): inflammatory cytokine in serum (ELISA)", "assay_type": "in vivo, mice", "conditions": "for level of IL-17 / inflammatory cytokines in psoriasis model mice: compared with the model group; for IL-17: serum, day 8 of modeling, 0.2 g cream per mouse daily for 7 days", "description": "Positive control drug: Fluticasone Propionate Cream (specification: 0.05% × 15 g, Zhejiang Xianju Pharmaceutical Co. Ltd., Lot No. 211106), stored at room temperature protected from light until use.\nAdult mice were selected, and the skin of 2 cm × 3 cm on the back of mice was locally depilated. The mice in the model group and drug administration group were applied with 62.5 mg of 5% imiquimod cream on their back for modeling, while the mice in the blank control group were applied with medical petroleum jelly on their back daily. The above procedures were performed once a day for 7 consecutive days.\nThe mice in the drug administration group were applied with the corresponding drugs on their backs daily at a dose of 0.2 g per mouse, while the blank control group and the model group were only applied with 0.2 g of the test sample drug matrix. One hour after drug administration, the drugs were wiped off with sterile cotton swabs, followed by the application of imiquimod. The above procedures were performed once a day for 7 consecutive days.\nAfter the PASI scoring on day 8 of modeling, blood was collected from the orbital sinus of mice and centrifuged at 3000 rpm for 10 min. The supernatant was extracted to measure the level of IL-17. All procedures were performed following the instructions of the ELISA kit.\nStatistical analysis was performed using SPSS software, and the results were expressed as mean ± standard deviation. One-way ANOVA was used for intergroup comparisons. For data with homogeneous variance, the LSD test was used; for data with heterogeneous variance, the Dunnett-t test was used. A value of P < 0.05 was considered statistically significant."}, "[7]": {"assay": "Pharmacokinetic (PK) experiment in rats", "assay_type": "in vivo, male SD rats", "conditions": "male, SD, rat, plasma, single", "method": "Pharmacological Example 11. Pharmacokinetic (PK) Experiment in Rats\nThe solution was prepared before administration.\nAnimals: 6 male SD rats, SPF grade (Beijing Vital River Laboratory Animal Technology Co., Ltd.).\nAnimal grouping: The animals were weighed prior to administration, and the dosage was calculated based on body weight. The animals in the oral administration group were fasted overnight (10-14 hours) before administration, and food was reintroduced 4 hours post-administration. Table 23. Animal grouping and drug administration dosages for pharmacokinetic (PK) experiment in rats\nBlood collection time points: Blood was collected from the jugular vein at 2 min, 5 min, 15 min, 30 min, 1 h, 2 h, 4 h, 8 h, and 24 h after administration. Approximately 0.25 mL of blood was collected for each sample, anticoagulated with heparin sodium, and then placed on ice immediately.\nPlasma sample processing: Blood samples were placed on ice after collection and centrifuged to separate plasma within 1 hour (centrifugation conditions: 6000 rpm, 3 minutes, 2-8 °C ). Plasma samples were stored in a -80°C freezer before analysis.\nData processing: Pharmacokinetic parameters were calculated using Phoenix WinNonlin 8.2.0 based on the plasma drug concentration data at different time points."}, "[8]": {"tested_on": "inflammatory bowel disease model rats", "assay": "Inflammatory bowel disease experiment (TNBS model): macroscopic injury score of the colon", "assay_type": "in vivo", "conditions": "colon, day 5 after TNBS; 2 mg/kg once a day (compounds intraintestinally, dexamethasone by gavage)", "method": "Pharmacological Example 7: Pharmacodynamic Experiment on Inflammatory Bowel Disease in Rats\nTest samples: The jet-milled compounds 23 and 34 were accurately weighed and prepared as 2 mg/mL clear solutions using anhydrous ethanol, respectively. The solutions were then diluted to 0.2 mg/mL with double-distilled water as the test samples, and stored at room temperature protected from light until use.\nAnimals in Groups 2 to 5 were subjected to trinitrobenzene sulfonic acid (TNBS) modeling as follows: A 5% TNBS aqueous solution was adjusted to 20 mg/mL TNBS (50% ethanol solution) with alcohol and water. After fasting for 24 h, the rats were anesthetized using an inhalation anesthesia machine. A silicone hose was inserted approximately 8 cm into the anus, and then TNBS was injected at a dose of 50 mg/kg. After injection, the rats were placed vertically for 1 min to prevent the backflow of TNBS solution. Then, the rats were placed into their cages for observation until the animals recovered.\nDrug administration started one day before modeling, with one dose administered 1 hour before modeling and then once a day for 5 consecutive days. […] Table 14. Animal grouping and drug administration dosages\nThe experiment ended on day 5 after TNBS modeling. After isoflurane anesthesia, blood was collected from the hearts, and the rats were euthanized. The abdominal cavity was rapidly opened, and the macroscopic injury scoring of the colon in rats was performed based on the adhesion, obstruction, thickening of the colonic wall, colonic congestion, and necrosis in the colon area. After clearing the colonic contents, the colonic samples were longitudinally incised. The proximal 2/3 of the colon was excised, prepared into Swiss rolls, and stored in 4% neutral buffered formalin for histopathological analysis. Tissues were trimmed, dehydrated, paraffin-embedded, and sectioned (approximately 5 µm thickness), stained with hematoxylin-eosin (HE), and observed for pathological changes. Pathologists performed blind scoring of colonic lesions.\nQuantitative indices were first subjected to Bartlett's test for homogeneity of variance. When the variance was homogeneous (P > 0.05), one-way analysis of variance (ANOVA) was used for a statistical test; if there was statistical significance (P ≤ 0.05), Dunnett's t-test (Dunnett method) was used to compare intergroup differences; if there was no statistical significance (P > 0.05), the statistical analysis was concluded. When the variance was heterogeneous (P ≤ 0.05), Kruskal-Wallis H rank-sum test (K-W method) was used for statistical analysis: if there was statistical significance (P ≤ 0.05), Mann-Whitney U test (M-W method) was further performed to compare intergroup differences; if there was no statistical significance (P > 0.05), the statistical analysis was concluded."}, "[9]": {"conditions": "after entering the systemic circulation; cited from earlier work"}, "[10]": {"conditions": "bronchoalveolar lavage fluid, 0.3 mg/mL, 50 µL intratracheally once daily for 3 days"}},
  "data": [
    {"smiles": "C[C@]12C=CC(=O)C=C1[C@@H](F)C[C@H]1[C@@H]3C[C@H]4OC(c5ccc(CSC6CCOC6=O)cc5)O[C@@]4(C(=O)CO)[C@@]3(C)C[C@H](O)[C@@]12F", "note": "(stereo partly drawn) [Compound 8, (2S,6aS,6bR,7S,8aS,8bS,11aR,12aS,12bS)-2,6b-Difluoro-7-hydroxy-8b-(2-hydroxyacetyl)-6a,8a-dimethyl-10-(4-(((2-oxotetrahydrofuran-3-yl)thio)methyl)phenyl)-1,2,6a,6b,7,8,8a,8b,11a,12,12a, 12b-dodecahydro-4H-naphtho[2',1':4,5]indeno[1,2-d][1,3]dioxol-4-one]", "values": [
      {"measurement": "EC50", "setting": "[1]", "result": "> 50", "unit": "µM"},
      {"measurement": "EC50", "setting": "[2]", "result": "> 50", "unit": "µM"},
      {"measurement": "half-life at 1 µM", "setting": "[3]", "result": "< 30", "unit": "min"},
      {"measurement": "half-life at 1 µM", "setting": "[4]", "result": "< 30", "unit": "min"},
      {"measurement": "stability in animal lung tissue homogenate, skin tissue homogenate, and aqueous humor", "setting": "[5]", "result": "relatively stable"},
      {"measurement": "Penh values in mice, Methacholine concentration (mg/ml) 0", "setting": "asthma model mice; 0.3 mg/mL, 50 µL intratracheally once daily for 3 days, methacholine 0 mg/ml", "result": "1.17 ± 0.23"},
      {"measurement": "Penh values in mice, Methacholine concentration (mg/ml) 6.25", "setting": "asthma model mice; 0.3 mg/mL, 50 µL intratracheally once daily for 3 days, methacholine 6.25 mg/ml", "result": "1.78 ± 0.46"},
      {"measurement": "Penh values in mice, Methacholine concentration (mg/ml) 12.5", "setting": "asthma model mice; 0.3 mg/mL, 50 µL intratracheally once daily for 3 days, methacholine 12.5 mg/ml", "result": "2.07 ± 0.66"},
      {"measurement": "Effects on airway hyperresponsiveness (Penh values) in mice", "setting": "asthma model mice; compared with the model group", "result": "significantly decreased the Penh values in mice"},
      {"measurement": "IL-6", "setting": "[6]; [10]", "result": "19.9 ± 5.3", "unit": "pg/mL"},
      {"measurement": "IL-12", "setting": "[6]; [10]", "result": "20.1 ± 7.1", "unit": "pg/mL"},
      {"measurement": "Effects on inflammatory cytokines in bronchoalveolar lavage fluid of mice", "setting": "[6]; compared with the model group", "result": "extremely significantly decreased the levels of IL-6 and IL-12 in mice"},
      {"measurement": "PASI scores", "setting": "psoriasis model mice", "result": "PASI scores significantly decreased on day 7"},
      {"measurement": "PASI score", "setting": "psoriasis model mice", "result": "4.8 ± 1.3"},
      {"measurement": "level of IL-17 / inflammatory cytokines in psoriasis model mice", "setting": "IL-17", "result": "significantly decreased the level of IL-17"},
      {"measurement": "IL-17", "setting": "IL-17", "result": "53.35 ± 64.19", "unit": "pg/mL"},
      {"measurement": "AUC(0-t)", "setting": "[7]; iv, 2 mg/kg", "result": "106 ± 35.9", "unit": "ng·h/mL"},
      {"measurement": "half-life", "setting": "[7]; iv, 2 mg/kg", "result": "< 0.5", "unit": "h"},
      {"measurement": "AUC(0-t)", "setting": "[7]; po, 10 mg/kg, gavage", "result": "< 70", "unit": "ng·h/mL"},
      {"measurement": "half-life", "setting": "[7]; po, 10 mg/kg, gavage", "result": "5.21 ± 3.17", "unit": "h"},
      {"measurement": "Cmax", "setting": "[7]; IV, 2 mg/kg", "result": "924 ± 504", "unit": "ng/mL"},
      {"measurement": "Cmax", "setting": "[7]; PO, 10 mg/kg, gavage", "result": "23.5 ± 14.4", "unit": "ng/mL"}
    ]},
    {"smiles": "C[C@@H]1C[C@H]2[C@@H]3CCC4=CC(=O)C=C[C@]4(C)[C@@]3(F)[C@@H](O)C[C@]2(C)[C@@]1(O)C(=O)CO", "note": "[Dexamethasone, reference compound]", "values": [
      {"measurement": "Macroscopic injury score", "setting": "[8]", "result": "5.00 ± 0.66"}
    ]},
    {"smiles": "CCC(=O)O[C@]1(C(=O)SCF)[C@H](C)C[C@H]2[C@@H]3C[C@H](F)C4=CC(=O)C=C[C@]4(C)[C@@]3(F)[C@@H](O)C[C@@]21C", "note": "[Fluticasone propionate, reference compound]", "values": [
      {"measurement": "PASI scores", "setting": "psoriasis model mice", "result": "PASI scores significantly decreased on day 7"},
      {"measurement": "PASI score", "setting": "psoriasis model mice", "result": "4.0 ± 0.6"},
      {"measurement": "level of IL-17 / inflammatory cytokines in psoriasis model mice", "setting": "IL-17", "result": "significantly decreased the level of IL-17"},
      {"measurement": "IL-17", "setting": "IL-17", "result": "25.04 ± 10.02", "unit": "pg/mL"},
      {"measurement": "plasma half-life in the human body", "setting": "[9]", "result": 3, "unit": "h"}
    ]}
  ]
}
